Reference: patent publication US8604038B2, “Pyrrolidine derived beta 3 adrenergic receptor agonists” (Merck Sharp & Dohme Corp., priority 2009, dated 2013)

Biological target: T1, human β3 adrenergic receptor (Homo sapiens, UniProt P13945)
T1 construct: expressed in transfected cells; host or cells: CHO (Chinese hamster ovary) cells, stably transfected
Assay: Beta-3 agonist in vitro functional assay (cAMP production, LANCE, transfected CHO cells)
Format: cell-based
Conditions: Table 3, CHO cells with cloned β3 receptor, ligands titrated 10^-12 M to 10^-5 M, read-out: Human β3 agonist functional activity
Method: Functional Assay: For compounds in examples 1-50, cAMP production in response to ligand is measured according to Barton, et al. (1991, Agonist-induced desensitization of D2 dopamine receptors in human Y-79 retinoblastoma cells. Mol. Pharmacol. […]:650-658) modified as follows. The cAMP production is measured using a homogenous time-resolved fluorescence resonance energy transfer immunoassay (LANCE™, Perkin Elmer) according to the manufacture's instructions. Chinese hamster ovary (CHO) cells, stably transfected with the cloned β-adrenergic receptor (β1, β2 or β3) are harvested after 3 days of subculturing. Harvesting of cells is done with Enzyme-free Dissociation Media (Specialty Media). Cells are then counted and resuspended in assay buffer (Hank's Balanced salt solution supplemented with 5 mM HEPES, […]) containing a phosphodiesterase inhibitor (IBMX, 0.6 mM). The reaction is initiated by mixing 6,000 cells in 6 μL with 6 μL Alexa Fluor labeled cAMP antibody (LANCE™ kit) which is then added to an assay well containing 12 μL of compound (diluted in assay buffer to 2× final concentration). The reaction proceeds for 30 minutes at RT and is terminated by the addition of 24 ul detection buffer (LANCE™ kit). The assay plate is then incubated for 1 h at RT and time-resolved fluorescence measured on a Perkin Elmer Envision reader or equivalent. The unknown cAMP level is determined by comparing fluorescence levels to a cAMP standard curve.
The non-selective, full agonist β-adrenergic ligand isoproterenol is used at all three receptors to determine maximal stimulation. The human β3 adrenergic receptor (AR) selective ligand (S)-N-[4-[2-[[2-hydroxy-3-(4-hydroxyphenoxy)propyl]amino]ethyl]-phenyl]-4-iodobenzenesulfonamide is used as a control in all assays. […] The EC50 is defined as the concentration of compound that gives 50% activation of its own maximum. Data are analyzed using Microsoft Excel and Graphpad Prism or an internally developed data analysis software package.
The EC50 is defined as the concentration of compound that gives 50% activation of its own maximum. Functional antagonist assays are performed similar to described above; however, unknown ligands are titrated at β-adrenergic receptor subtypes 1 and 2 at a final concentration in the assay of 10^-12 M to 10^-5 M in the presence of 10^-9 M full agonist β-adrenergic ligand isoproterenol. The EC50 is defined as the concentration of compound that gives 50% inhibition of the full agonist response. Data are analyzed using Microsoft Excel and Graphpad Prism or an internally developed data analysis software package.

T1 sequence (P13945 whole entry): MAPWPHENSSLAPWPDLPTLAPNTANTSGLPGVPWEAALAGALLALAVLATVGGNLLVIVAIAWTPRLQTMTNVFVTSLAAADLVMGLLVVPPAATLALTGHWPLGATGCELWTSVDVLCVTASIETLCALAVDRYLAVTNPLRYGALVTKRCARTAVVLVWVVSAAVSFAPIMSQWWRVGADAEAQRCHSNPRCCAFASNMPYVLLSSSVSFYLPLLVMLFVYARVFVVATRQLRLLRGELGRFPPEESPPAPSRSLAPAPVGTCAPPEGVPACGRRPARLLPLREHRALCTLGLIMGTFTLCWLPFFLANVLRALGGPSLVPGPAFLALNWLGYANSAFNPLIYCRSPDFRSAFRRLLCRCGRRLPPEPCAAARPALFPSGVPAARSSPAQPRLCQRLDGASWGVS

| EC50 | Compound |
| --- | --- |
| 1 to 9.9 nM | CN(Cc1nc2ccsc2c(=O)[nH]1)C(=O)c1ccc(C[C@@H]2CC[C@H]([C@H](O)c3ccccc3)N2)cc1 [Example 114] |
| 100 to 999 nM | CCN(CCN)C(=O)c1ccc(C[C@@H]2CC[C@H]([C@H](O)c3ccccc3)N2)cc1 [Example 115] |
| 10 to 99.9 nM | Cc1cnc(CN(CC(C)C)C(=O)c2ccc(C[C@@H]3CC[C@H]([C@H](O)c4ccccc4)N3)cc2)s1 [Example 116] |
| 100 to 999 nM | CN(C(=O)c1ccc(C[C@@H]2CC[C@H]([C@H](O)c3ccccc3)N2)cc1)C1CCOC1 (stereo partly drawn) [Example 117] |
| 100 to 999 nM | CN(Cc1nccs1)C(=O)c1ccc(C[C@@H]2CC[C@H]([C@H](O)c3ccccc3)N2)cc1 [Example 118] |
| 100 to 999 nM | CN(CCC1CCCCO1)C(=O)c1ccc(C[C@@H]2CC[C@H]([C@H](O)c3ccccc3)N2)cc1 (stereo partly drawn) [Example 119] |
| 1000 to 3000 nM | Cc1ccc(OCCN(C)C(=O)c2ccc(C[C@@H]3CC[C@H]([C@H](O)c4ccccc4)N3)cc2)cc1 [Example 120] |
| 100 to 999 nM | CCN(Cc1ccccn1)C(=O)c1ccc(C[C@@H]2CC[C@H]([C@H](O)c3ccccc3)N2)cc1 [Example 121] |
| 100 to 999 nM | Cc1csc(CN(C)C(=O)c2ccc(C[C@@H]3CC[C@H]([C@H](O)c4ccccc4)N3)cc2)n1 [Example 123] |
| 10 to 99.9 nM | CN(Cc1cccnc1Cl)C(=O)c1ccc(C[C@@H]2CC[C@H]([C@H](O)c3ccccc3)N2)cc1 [Example 124] |
| 100 to 999 nM | CN(Cc1ncc(Cl)cn1)C(=O)c1ccc(C[C@@H]2CC[C@H]([C@H](O)c3ccccc3)N2)cc1 [Example 125] |
| 100 to 999 nM | Cc1cccn2cc(CN(C)C(=O)c3ccc(C[C@@H]4CC[C@H]([C@H](O)c5ccccc5)N4)cc3)nc12 [Example 126] |
| 100 to 999 nM | CN(CC1CCCO1)C(=O)c1ccc(C[C@@H]2CC[C@H]([C@H](O)c3ccccc3)N2)cc1 (stereo partly drawn) [Example 127] |
| 100 to 999 nM | CCN(Cc1cccnn1)C(=O)c1ccc(C[C@@H]2CC[C@H]([C@H](O)c3ccccc3)N2)cc1 [Example 129] |
| 100 to 999 nM | O=C(c1ccc(C[C@@H]2CC[C@H]([C@H](O)c3ccccc3)N2)cc1)N(Cc1cccnn1)C1CC1 [Example 130] |
| 100 to 999 nM | COCCCN(Cc1cccnn1)C(=O)c1ccc(C[C@@H]2CC[C@H]([C@H](O)c3ccccc3)N2)cc1 [Example 131] |
| 100 to 999 nM | CN(Cc1csc(N)n1)C(=O)c1ccc(C[C@@H]2CC[C@H]([C@H](O)c3ccccc3)N2)cc1 [Example 132] |

| Compound | EC50 |
| --- | --- |
| CC(c1cccnc1)N(C)C(=O)c1ccc(C[C@@H]2CC[C@H]([C@H](O)c3ccccc3)N2)cc1 (stereo partly drawn) [Example 128] | 1 to 9.9 nM |

Same assay, conditions: given as a range, CHO cells with cloned β3 receptor, read-out: human Beta-3 agonist functional activity

| EC50 | Compound |
| --- | --- |
| 10 to 99.9 nM | CN(C)C(=O)c1ccc(C[C@@H]2CC[C@H](C(O)c3ccc(N)nc3)N2)cc1 (stereo partly drawn) [Example 133, 4-({(2S,5R)-5-[(6-aminopyridin-3-yl)(hydroxy)methyl]pyrrolidin-2-yl}methyl)-N,N-dimethylbenzamide] |
| 10 to 99.9 nM | CN(CCc1ccccn1)C(=O)c1ccc(C[C@@H]2CC[C@H]([C@H](O)c3ccccc3)N2)cc1 [Example 134, 4-({(2S,5R)-5-[(R)-hydroxy(phenyl)methyl]pyrrolidin-2-yl}methyl)-N-methyl-N-[2-(pyridin-2-yl)ethyl)benzamide] |
| 10 to 99.9 nM | CN(Cc1ccccc1F)C(=O)c1ccc(C[C@@H]2CC[C@H]([C@H](O)c3ccccc3)N2)cc1 [Example 135, N-(2-fluorobenzyl)-4-({(2S,5R)-5-[(R)-hydroxy(phenyl)methyl]pyrrolidin-2-yl}methyl)-N-methylbenzamide] |
| < 1 nM | CN(Cc1cccc(N)n1)C(=O)c1ccc(C[C@@H]2CC[C@H]([C@H](O)c3ccccc3)N2)cc1 [Example 136, N-[(6-aminopyridin-2-yl)methyl]-4-({(2S,5R)-5-[(R)-hydroxy(phenyl)methyl]pyrrolidin-2-yl}methyl)-N-methylbenzamide] |
| 100 to 999 nM | CC(c1ccccn1)N(C)C(=O)c1ccc(CC2CC[C@H]([C@H](O)c3ccccc3)N2)cc1 (stereo partly drawn) [Example 137] |

System: rats
Assay: not given
Conditions: intravenous administration, cystometric studies; cited from earlier work

| Compound | bladder capacity | micturition interval | residual urine volume |
| --- | --- | --- | --- |
| C[C@H](Cc1ccc2c(c1)OC(C(=O)[O-])(C(=O)[O-])O2)NC[C@H](O)c1cccc(Cl)c1.[Na+].[Na+] [CL316243] | increases bladder capacity | prolongation of micturition interval | without increasing residual urine volume |

Same assay, conditions: intravenous administration; cited from earlier work

| Compound | bladder pressure |
| --- | --- |
| C[C@H](Cc1ccc2c(c1)OC(C(=O)[O-])(C(=O)[O-])O2)NC[C@H](O)c1cccc(Cl)c1.[Na+].[Na+] [CL316243] | reduces bladder pressure |
